Experimental findings from US20110045100A1, “Antimalarial Quinolines and Methods of Use Thereof” (GEORGETOWN UNIVERSITY, priority 2008, published 2011) are described below.

Data set [1] in a line: pKa determination by acid/base titration. The format is physicochemical. Particulars: distilled water; measured; read-out: quinolyl N pKa. The procedure:
SPARC pKa calculator is an online tool developed at the University of Georgia by S. W. Karickhoff, L. A. Carreira and S. H. Hilal. Experimental pKa were determined using an Accumet AB15 pH meter and a calomel electrode. 10 mM solutions of the drugs (as dibasic salts) were made in distilled H2O and titrated at room temperature (23.0±2.0° C.) using 0.1 M NaOH. Titration plots were generated and pKa's extracted via inflection points from the second derivative plots; (Δ^2pH/ΔV^2) vs. V, where V represents the volume of the titrant added and ΔV is the volume increment.

The subject of a further data set is monomeric heme. The data set is described as follows: Heme affinity measurement, monomeric heme. The settings on record: acidic 40% DMSO. The data set is classed as binding. The procedure: To test whether binding to Hz precursors is also altered for the 4S and 4O derivatives, binding constants were measured as previously described for both μ-oxo dimeric and monomeric heme (FIG. 25). […] J. Am. Chem. Soc. 1988, 110, 4391-4395; Egan, T. J.; Mavuso, W. W.; Ross, D. C.; Marques, H. M. Thermodynamic factors controlling the interaction of quinoline antimalarial drugs with ferriprotoporphyrin IX. J. Inorg. Biochem. 1997, 68, 137-145; and Egan, T. J.; Ncokazi, K. K. Effects of solvent composition and ionic strength on the interaction of quinoline antimalarials with ferriprotoporphyrin IX. J. Inorg. Biochem. 2004, 98, 144-152. Due to the instability of monomeric heme in aqueous solution, the affinity to monomer measured by conventional absorbance experiments can only be estimated using 40% DMSO in water as solvent. Egan, T. J.; Ncokazi, K. K. Effects of solvent composition and ionic strength on the interaction of quinoline antimalarials with ferriprotoporphyrin IX. J. Inorg. Biochem. 2004, 98, 144-152. At appropriately acidic solution pH (≦5.0) FPIX heme is primarily monomeric, whereas at pH 7, appreciable dimer is formed. As shown (FIG. 25), CQ and compounds 88, 93, and 98 all have poor affinity for monomeric heme in acidic 40% DMSO. To further test if CQ interacts with monomeric heme, T1 measurements of the CQ protons were made with samples containing 10 mM CQ and 2 mM hemin chloride in 40% DMSO at pH 5.0. Although the lines are broadened in this solution due to paramagnetic susceptibility, the measured T1's indicate only weak paramagnetic relaxation. For example, the measured T1 for CQ proton 1 in this sample is 0.70 s, whereas at pH 7.0 the T1 for the same proton is 0.039 s.
To measure affinity for monomeric heme, 1.2 mM stock solutions of hemin (sodium salt from Sigma-Aldrich) were prepared in DMSO and stored as […] aliquots. 4.8 μM working solutions were prepared in 40% DMSO/phosphate buffer (fresh stocks prepared daily). Stock solutions of CQ and CQ analogues (diphosphate or dihydrochloride salts) were prepared in 40% DMSO/phosphate buffer and used for the titration experiments (all drugs dilutions were prepared in the same buffer).
1.5 mL cuvettes containing freshly prepared samples of 4.8 μM heme were titrated with increasing concentrations (0-50 μM) of drug. Following each addition, the sample was mixed and heme absorbance then recorded at 402 nm. Control experiments were performed by titrating 4.8 μM heme with similar volumes of solvent and no drug present. […] The absorbance peak analysis was done using Microsoft excel and Ka were extracted from the ΔAbs402 plots via Scatchard analysis using Microsoft Excel and Sigma plot 9.0.1 software.

The subject of data set [2] is CQS (HB3, GCO3) and CQR (Dd2, FCB) strains of P. falciparum. The data set is described as follows: SYBR Green I antiplasmodial assay, several CQS and CQR strains. The format is cell-based, Plasmodium falciparum. Particulars: Plasmodium falciparum; read-out: IC50 vs. CQR parasites. An excerpt:
Bennett T. N.; Paguio, M.; Gligorijevic, B.; Seudieu, C.; Kosar, A. D.; Davidson, E.; Roepe, P. D. Novel, rapid, and inexpensive cell-based quantification of antimalarial drug efficacy. Antimicrob. Agents Chemother. 2004, 48, 1807-1810; Smilkstein, M.; Sriwilaijaroen, N.; Kelly, J. X.; Wilairat, P.; Riscoe, M. Simple and inexpensive fluorescence-based technique for high-throughput antimalarial drug screening. Antimicrob. Agents Chemother. 2004, 48, 1803-1806; and Johnson, J. D.; Dennull, R. A.; Gerena, L.; Lopez-Sanchez, M.; Roncal, N. E.; Waters, N.C. Assessment and continued validation of the malaria SYBR green I-based fluorescence assay for use in malaria drug screening. Antimicrob. Agents Chemother. 2007, 51, 1926-1933. […] Drake, N. L.; Creech, H. J.; Garman, J. A.; Haywood, S. T.; Peck, R. M.; van Hook, J. O.; Walton, E. Synthetic antimalrials. The preparation of certain 4-aminoquinolines. J. Am. Chem. Soc. […] Trans. R. Soc. Trop. Med. Hyg. […] J. Parasitol. 1983, 69, 97-105. The selectivity index provides a quantitative measure of the antimalarial activity against CQR strains relative to that against sensitive strains and thus indicates promising drug discovery leads. […] This can be combined with the introduction of a third basic amino function which should further favor accumulation of the drug within the acidic food vacuole of the parasite.
Bennett T. N.; Paguio, M.; Gligorijevic, B.; Seudieu, C.; Kosar, A. D.; Davidson, E.; Roepe, P. D. Novel, rapid, and inexpensive cell-based quantification of antimalarial drug efficacy. Antimicrob. Agents Chemother. 2004, 48, 1807-1810; Smilkstein, M.; Sriwilaijaroen, N.; Kelly, J. X.; Wilairat, P.; Riscoe, M. Simple and inexpensive fluorescence-based technique for high-throughput antimalarial drug screening. Antimicrob. Agents Chemother. 2004, 48, 1803-1806; and Johnson, J. D.; Dennull, R. A.; Gerena, L.; Lopez-Sanchez, M.; Roncal, N. E.; Waters, N.C. Assessment and continued validation of the malaria SYBR green I-based fluorescence assay for use in malaria drug screening. Antimicrob. Agents Chemother. 2007, 51, 1926-1933.
Drug activities were assessed and IC50 were quantified essentially as described previously. Delarue, S.; Girault, S.; Maes, L.; Debreu-Fontaine, M. A.; Labaeid, M.; Grellier, P.; Sergheraert, C. Synthesis and in vitro and in vivo antimalarial activity of new 4-anilinoquinolines. J. Med. Chem. 2001, 44, 2827-2833; and O'Neill, P. M.; Willock, D. J.; Hawley, S. R.; Bray, P. G.; Storr, R. C.; Ward, S. A.; Park, B. K. Synthesis, antimalarial activity, and molecular modeling of tebuquine analogues. J. Med. Chem. 1997, 40, 437-448.

Turning to `CCN(CC)CCCCOc1ccnc2cc(Cl)ccc12` [compound 93, O-(7-Chloro-4-quinolyl)-4-(N,N-diethylamino)butanol], the pKa in data set [1] came to 4.5. Also, the “affinity for monomeric heme” value in the data set with monomeric heme was “poor affinity”. Also, the IC50 in data set [2] was roughly 1 µM.
